We go through two molecules from patent US5494893A, “Stylostatin 2” (Arizona Board of Regents, a body corporate acting on behalf …, priority 1994, dated 1996).

Assay [1] relates to murine P388 lymphocytic leukemia (PS system) cell line. To be noted: earlier reported work (J. Org. Chem. 1992); cited from earlier work.
The test system of the next assay is OVCAR 3. Description: OVCAR 3 human cancer cell growth inhibition. Format: cell-based. To be noted: OVCAR 3 cell line. The text has this:
(§1) Current research in the control of cancer in the United States is coordinated by the National Cancer Institute (NCI). To determine whether a substance has anti-cancer properties, the NCI has established a systematic protocol. This protocol, which involves the testing of a substance against a standard cell line panel containing 60 human tumor cell lines, has been verified and has been accepted in scientific circles. The protocol, and the established statistical means for analyzing the results obtained by the standardized testing are fully described in the literature. See: Boyd, Dr. Michael R., Principles & Practice of Oncology, PPO Updates, Volume 3, Number 10, Oct. […]
(§2) Each drug is tested at five (5) doses: 100--10--1--0.1--0.01 μg/ml. Percent Growths are calculated for each dose. […]
(§3) At the start of an experiment, cells from the in vitro cell cultures are inoculated into the appropriate tubes or microtiter plates. One set of control tubes/plates is immediately counted to determine the number of cells at the start of the experiment. This is the "baseline count", or "Tzero reading". At the end of the experiment (48 hours later), a second set of control tubes/plates is analyzed to determine the "Control Growth" value. The growth (or death) of cells relative to the initial quantity of cells is used to define the "Percent of Growth".

Assay [2] has as its system U.S. National Cancer Institute panel of 60 human cancer cell lines. Description: NCI panel of 60 human cancer cell lines, growth inhibition. To be noted: NCI 60 cell line panel, quadruplicate tests, average over panel, 48 hours; read-out: overall panel-averaged GI50 concentration. The format is cell-based.
Excerpt: as §1, §2, §3

≈ marks a conversion by molar mass, not a printed value. Where a SMILES comes first, the peptide text is derived from it.

Take “cyclo (Pro-Phe-Asn-Ser-Leu-Ala-Ile) (PFNSLAI; head-to-tail cyclic; printed: Pro-Phe-Asn-Ser-Leu-Ala-Ile) [stylostatin 1, cycloheptapeptide earlier isolated from the same Stylotella sp. sponge]”: in assay [1], the “P388 (PS system) cell line inhibition” value is “inhibitor”.
For the molecule `CC[C@H](C)[C@@H]1NC(=O)[C@H](CC(C)C)NC(=O)[C@@H]2CCCN2C(=O)[C@H]([C@@H](C)CC)NC(=O)[C@@H]2CCCN2C(=O)[C@H](CO)NC(=O)[C@H](Cc2ccccc2)NC1=O` [stylostatin 2, cyclo (Pro-Leu-Ile-Phe-Ser-Pro-Ile)] (cyclo(FSPIPLI)), the GI50 in the assay on OVCAR 3 worked out at 3.7 µg/mL (≈ 4.82 µM); in assay [2], 6.2 µM.
